Measurements reported in PMC9774648, “Synthesis, Physicochemical Properties and Molecular Docking of New Benzothiazole Derivatives as Antimicrobial Agents Targeting DHPS Enzyme” (Antibiotics, 2022).
Values after ≈ are worked out from the molar mass of the structure shown. Read-outs that look alike come from different tables or passages of the source.

Tests used:
[1] = test system: S. aureus (ATCC: 6538); assay: Agar well diffusion, inhibition zone, S. aureus; type: cell-based; settings: for zone of inhibition at 15000 µg/mL: Staphylococcus aureus, read-out: Diameter of the Inhibition Zone, S. aureus
[2] = test system: S. mutans (ATCC: 25175); assay: Agar well diffusion, inhibition zone, S. mutans; type: cell-based; settings: for zone of inhibition at 15000 µg/mL: Streptococcus mutans, read-out: Diameter of the Inhibition Zone, S. mutans
[3] = test system: K. pneumonia (ATCC: 4415); assay: Agar well diffusion, inhibition zone, K. pneumonia; type: cell-based; settings: agar well diffusion, 15 mg/mL, 100 μL per well, 37 °C 24 h, mean ± SD, triplicate
[4] = test system: P. aeruginosa (ATCC: 27853); assay: Agar well diffusion, inhibition zone, P. aeruginosa; type: cell-based; settings: agar well diffusion, 15 mg/mL, 100 μL per well, 37 °C 24 h, mean ± SD, triplicate
[5] = test system: E. coli (ATCC: 3008); assay: Agar well diffusion, inhibition zone, E. coli; type: cell-based; settings: agar well diffusion, 15 mg/mL, 100 μL per well, 37 °C 24 h, mean ± SD, triplicate
[6] = test system: C. albicans (ATCC: 10231); assay: Agar well diffusion, inhibition zone, C. albicans; type: cell-based; settings: 15 mg/mL, 100 μL per well, mean ± SD, triplicate; for zone of inhibition at 15000 µg/mL: Candida albicans, read-out: Diameter of the Inhibition Zone, C. albicans
[7] = test system: S. aureus; assay: MIC, twofold serial dilution, S. aureus; type: cell-based; settings: Staphylococcus aureus; twofold serial dilution in broth, 37 °C 16–20 h; read-out: The Minimum Inhibitory Concentration (MIC), S. aureus
Description: The new synthetic compounds, 6a–c, 12a–c, 14a–c, 16a–c and 19a–e, were tested in vitro to evaluate antibacterial activities against Gram-negative and Gram-positive bacteria, such as E. coli (ATCC: 3008), K. pneumonia (ATCC: 4415) and P. aeruginosa (ATCC: 27853), as an example for Gram-negative bacteria, as well as S. aureus (ATCC: 6538) and S. mutans (ATCC: 25175) for Gram-positive bacteria. The antifungal activities were evaluated also for the novel compounds in vitro against C. albicans (ATCC: 10231). The antibacterial and antifungal activities were determined by the agar-diffusion method using gentamicin, ampicillin and sulfadiazine, example of sulfa drug, as standard drugs against Gram-negative and Gram-positive, while nystatin was used as standard drug against the fungal strain. Table 1 summarizes the results for all tested compounds as the average diameter of inhibition zones of microbial growth around the discs in mm ± SD.
For each strain, three to five isolated colonies were selected from the fresh agar plate and were transferred into a tube containing 3–4 mL of sterile broth medium. The bacterial suspension was mixed well and incubated at 35–37 °C for 2–6 h. The turbidity of the bacterial suspension should be equal to or greater than the turbidity of a McFarland Standard 0.5. After that, 1 mg of the tested compound (antimicrobial agent) was dissolved in 1 mL DMSO and two-fold serial dilution was done using broth medium. A fixed volume of the prepared bacterial inoculum was added to each tube and incubated for at 37 °C 16–20 h. The MIC is defined as the lowest concentration of the antimicrobial agent that inhibits visible growth of the tested isolate as observed with the unaided eye.

[8] = test system: S. mutans; assay: MIC, twofold serial dilution, S. mutans; type: cell-based; settings: Streptococcus mutans, read-out: The Minimum Inhibitory Concentration (MIC), S. mutans
[9] = target: DHPS enzyme (dihydropteroate synthase) (Bacillus anthracis, UniProt Q81VW8); assay: biochemical
Sequence of DHPS enzyme (dihydropteroate synthase) (Q81VW8 1-280): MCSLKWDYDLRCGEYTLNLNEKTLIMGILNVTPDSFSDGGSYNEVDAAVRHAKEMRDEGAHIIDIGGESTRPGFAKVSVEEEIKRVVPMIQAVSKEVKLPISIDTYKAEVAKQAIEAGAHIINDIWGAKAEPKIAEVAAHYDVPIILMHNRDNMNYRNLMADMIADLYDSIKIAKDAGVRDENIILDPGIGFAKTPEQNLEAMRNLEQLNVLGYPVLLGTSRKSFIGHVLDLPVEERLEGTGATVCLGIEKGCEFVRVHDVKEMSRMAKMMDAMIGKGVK

[10] = agar well diffusion, 15 mg/mL, 100 μL per well, 37 °C 24 h, mean ± SD, triplicate
[11] = twofold serial dilution in broth, 37 °C 16–20 h

Structure (SMILES)	Diameter of the Inhibition Zone, S. mutans [2, 10]	Diameter of the Inhibition Zone, K. pneumonia [3]	Diameter of the Inhibition Zone, P. aeruginosa [4]	Diameter of the Inhibition Zone, E. coli [5]	melting point [°C]	MIC [7] [µM]	zone of inhibition at 15000 µg/mL [1, 10] [mm]	zone of inhibition at 15000 µg/mL [2, 10] [mm]	other results
O=C(NNS(=O)(=O)c1ccccc1)/C(=N/Nc1ccccc1)c1nc2ccccc2s1 [Compound 19a, N′-(2-(Benzo[d]thiazol-2-yl)-2-(2-phenylhydrazono)acetyl)benzenesulfono-hydrazide]	-	-	-	-	246 to 248.6				Diameter of the Inhibition Zone, S. aureus [1, 10]: -; zone of inhibition at 15000 µg/mL [6]: 10.3 ± 0.5 mm
CC1(C)S[C@@H]2[C@H](NC(=O)[C@H](N)c3ccccc3)C(=O)N2[C@H]1C(=O)O [Ampicillin, reference compound]						179 (≈ 62.5 µg/mL)			zone of inhibition at 15000 µg/mL ([1]; 24 h): 22 ± 0.1 mm; zone of inhibition at 15000 µg/mL ([2]; 24 h): 30 ± 0.5 mm; MIC [8]: 179 µM (≈ 62.5 µg/mL)
O=c1[nH]c(-c2ccc(Br)cc2)ccc1-c1nc2ccccc2s1 [Compound 12b, 3-(Benzo[d]thiazol-2-yl)-6-(4-bromophenyl)pyridin-2(1H)-one]	-	-	-	-	345 to 346	2610 (≈ 1000 µg/mL)	17.6 ± 0.6		
Cc1ccc(NC(=O)c2cc(-c3nc4ccccc4s3)c(=O)n(NS(=O)(=O)c3ccc(Cl)cc3)c2N)cc1 [Compound 6c, 2-Amino-5-(benzo[d]thiazole-2-yl)-1-(4-chlorophenylsulfonamido)-6-oxo-N-(p-tolyl)-1,6-dihydropyridine-3–carboxamide]		-	-	-	302 to 305		10.6 ± 0.5	10.6 ± 0.5	
O=c1[nH]c(-c2ccc(Cl)cc2)ccc1-c1nc2ccccc2s1 [Compound 12a, 3-(Benzo[d]thiazol-2-yl)-6-(4-chlorophenyl)pyridin-2(1H)-one]	-	-	-	-		369 (≈ 125 µg/mL)	19.6 ± 0.6		IC50 [9]: 83.6 µM; inhibition at 0.1 µg/mL ([9]; 0.1 μg/mL, read-out: Inhibition % against DHPS enzyme): 11%; inhibition at 1 µg/mL ([9]; 1 μg/mL, read-out: Inhibition % against DHPS enzyme): 27%; inhibition at 10 µg/mL ([9]; 10 μg/mL, read-out: Inhibition % against DHPS enzyme): 44%; inhibition at 100 µg/mL ([9]; 100 μg/mL, read-out: Inhibition % against DHPS enzyme): 58%
C[C@@H]1[C@H](O)[C@@H](C)/C=C/C=C/CC/C=C/C=C/C=C/C=C/C(O[C@H]2O[C@H](C)[C@@H](O)[C@H](N)[C@@H]2O)CC2O[C@](O)(CC(O)C(O)CCC(O)CC(O)CC(O)CC(=O)O[C@H]1C)CC(O)C2C(=O)O (stereo partly shown) [Nystatin, reference compound]									Diameter of the Inhibition Zone, C. albicans [6]: 21.0 ± 0.5 mm
Nc1c(C(=O)Nc2ccc(Cl)cc2)cc(-c2nc3ccccc3s2)c(=O)n1NS(=O)(=O)c1ccc(Cl)cc1 [Compound 6b, 2-Amino-5-(benzo[d]thiazole-2-yl)-N-(4-chlorophenyl)-1-(4-chlorophenylsulfonamido)-6-oxo-1,6-dihydropyridine-3–carboxamide]		-	-	-	334 to 336	1700 (≈ 1000 µg/mL)	18.3 ± 0.6	15.3 ± 0.5	MIC [8, 11]: 1700 µM (≈ 1000 µg/mL)
Cc1ccc(N/N=C(/C(=O)NNS(=O)(=O)c2ccc(C)cc2)c2nc3ccccc3s2)cc1 [Compound 19e, N′-(2-(Benzo[d]thiazol-2-yl)-2-(2-(4-methylphenyl)hydrazono)acetyl)-4-methylbenzenesulfono-hydrazide]	-	-	-	-	285 to 286				Diameter of the Inhibition Zone, S. aureus [1, 10]: -
Cc1ccc(S(=O)(=O)NNC(=O)/C(=C/c2ccc(F)cc2)c2nc3ccccc3s2)cc1 [Compound 14a]		-	-	-	201 to 202	1070 (≈ 500 µg/mL)	19.3 ± 0.6	18.3 ± 0.6	zone of inhibition at 15000 µg/mL [6]: 20.6 ± 0.6 mm; MIC [8, 11]: 2140 µM (≈ 1000 µg/mL)
Nc1c(C(=O)Nc2ccccc2)cc(-c2nc3ccccc3s2)c(=O)n1NS(=O)(=O)c1ccc(Cl)cc1 [Compound 6a, 2-Amino-5-(benzo[d]thiazole-2-yl)-1-(4-chlorophenylsulfonamido)-6-oxo-N-phenyl-1,6-dihydropyridine-3–carboxamide]		^a -	-	-		906 (≈ 500 µg/mL)	19.6 ± 0.6	12.3 ± 0.6	
O=C(NNS(=O)(=O)c1ccccc1)C(=NNc1ccc(Cl)cc1)c1nc2ccccc2s1 [Compound 19b, N′-(2-(Benzo[d]thiazol-2-yl)-2-(2-(4-chlorophenyl)hydrazono)acetyl)benzene-sulfonohydrazide]	-	-	-	-	265 to 267		11.6 ± 0.5		
COc1ccc(-c2ccc(-c3nc4ccccc4s3)c(=O)[nH]2)cc1 [Compound 12c, 3-(Benzo[d]thiazol-2-yl)-6-(4-methoxyphenyl)pyridin-2(1H)-one]		-	-	-			15.6 ± 0.5	11.3 ± 0.5	
